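These data come from cells grown in 96-well plates and exposed to compound for 48 hours at five concentrations. At the GI50, growth is halved.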 The source made the active and inactive calls. No stated cut-off is given here; in the data, active = GI50 up to about 1.1 µM and inactive = higher.
Key:
Test in all cases: NCI tumour cell line growth inhibition, 48 h
A549 = test system: A549
RXF 393 = test system: RXF 393
SNB-19 = test system: SNB-19
U-251 = test system: U-251
SF-295 = test system: SF-295
OVCAR-8 = test system: OVCAR-8
A498 = test system: A498
HL-60 = test system: HL-60
SN12C = test system: SN12C
HCT-116 = test system: HCT-116
SK-OV-3 = test system: SK-OV-3
RPMI-8226 = test system: RPMI-8226
SF-539 = test system: SF-539
IGROV-1 = test system: IGROV-1
SW-620 = test system: SW-620
HOP-62 = test system: HOP-62
SK-MEL-5 = test system: SK-MEL-5
TK-10 = test system: TK-10
786-0 = test system: 786-0
SK-MEL-28 = test system: SK-MEL-28
MOLT-4 = test system: MOLT-4
LOX IMVI = test system: LOX IMVI
K562 = test system: K562
UACC-257 = test system: UACC-257
UO-31 = test system: UO-31
COLO 205 = test system: COLO 205
SNB-75 = test system: SNB-75
LXFL 529 = test system: LXFL 529
NCI-H23 = test system: NCI-H23
KM12 = test system: KM12
HCC 2998 = test system: HCC 2998
CAKI-1 = test system: CAKI-1
NCI-H460 = test system: NCI-H460
DLD-1 = test system: DLD-1
ACHN = test system: ACHN
M14 = test system: M14
OVCAR-3 = test system: OVCAR-3
SR = test system: SR
OVCAR-4 = test system: OVCAR-4
DMS-273 = test system: DMS-273
KM-20L2 = test system: KM-20L2
HOP-92 = test system: HOP-92
M19-MEL = test system: M19-MEL
CCRF-CEM = test system: CCRF-CEM
XF498 = test system: XF498
UACC-62 = test system: UACC-62
SNB-78 = test system: SNB-78
SK-MEL-2 = test system: SK-MEL-2
EKVX = test system: EKVX
DMS-114 = test system: DMS-114
SF-268 = test system: SF-268
HCT-15 = test system: HCT-15
NCI/ADR-RES = test system: NCI/ADR-RES
MDA-MB-231 = test system: MDA-MB-231
DU-145 = test system: DU-145
PC-3 = test system: PC-3
T47D = test system: T47D
BT-549 = test system: BT-549
OVCAR-5 = test system: OVCAR-5
MCF7 = test system: MCF7
HT-29 = test system: HT-29
HOP-18 = test system: HOP-18
Hs-578T = test system: Hs-578T
MDA-MB-435 = test system: MDA-MB-435
MDA-N = test system: MDA-N
Malme-3M = test system: Malme-3M

What does the source list for `CC1=NN(C(=O)Nc2ccc(Cl)cc2)C(=O)C2CCC(=O)N12` (stereo unspecified)?
GI50 (A549): 49300 nM (inactive); GI50 (RXF 393): > 100000 nM (inactive); GI50 (SNB-19): > 100000 nM (inactive); GI50 (U-251): > 100000 nM (inactive); GI50 (SF-295): 48300 nM (inactive); GI50 (OVCAR-8): > 100000 nM (inactive); GI50 (A498): > 100000 nM (inactive); GI50 (HL-60): 61700 nM (inactive); GI50 (SN12C): > 100000 nM (inactive); GI50 (HCT-116): > 100000 nM (inactive); GI50 (SK-OV-3): 38700 nM (inactive); GI50 (RPMI-8226): 93300 nM (inactive); GI50 (SF-539): > 100000 nM (inactive); GI50 (IGROV-1): > 100000 nM (inactive); GI50 (SW-620): > 100000 nM (inactive); GI50 (HOP-62): > 100000 nM (inactive); GI50 (SK-MEL-5): 87300 nM (inactive); GI50 (TK-10): > 100000 nM (inactive); GI50 (786-0): 88700 nM (inactive); GI50 (SK-MEL-28): > 100000 nM (inactive); GI50 (MOLT-4): 53000 nM (inactive); GI50 (LOX IMVI): 4130 nM (inactive); GI50 (K562): 3190 nM (inactive); GI50 (UACC-257): 49300 nM (inactive); GI50 (UO-31): 61200 nM (inactive); GI50 (COLO 205): > 100000 nM (inactive); GI50 (SNB-75): > 100000 nM (inactive); GI50 (LXFL 529): 2650 nM (inactive); GI50 (NCI-H23): 74100 nM (inactive); GI50 (KM12): 28900 nM (inactive); GI50 (HCC 2998): > 100000 nM (inactive); GI50 (CAKI-1): 60300 nM (inactive); GI50 (NCI-H460): 28300 nM (inactive); GI50 (DLD-1): > 100000 nM (inactive); GI50 (ACHN): 5730 nM (inactive); GI50 (M14): > 100000 nM (inactive); GI50 (OVCAR-3): > 100000 nM (inactive); GI50 (SR): > 100000 nM (inactive); GI50 (OVCAR-4): 72800 nM (inactive); GI50 (DMS-273): 47300 nM (inactive); GI50 (KM-20L2): 4380 nM (inactive); GI50 (HOP-92): > 100000 nM (inactive); GI50 (M19-MEL): > 100000 nM (inactive); GI50 (CCRF-CEM): > 100000 nM (inactive); GI50 (XF498): > 100000 nM (inactive); GI50 (UACC-62): 2200 nM (inactive); GI50 (SNB-78): > 100000 nM (inactive); GI50 (SK-MEL-2): > 100000 nM (inactive); GI50 (EKVX): > 100000 nM (inactive); GI50 (DMS-114): > 100000 nM (inactive); GI50 (SF-268): 45300 nM (inactive); GI50 (HCT-15): 1760 nM

With `C=Cc1cc(OC)c2c(c1)c(=O)oc1c2cc(OC)c2c(O)ccc(C3OC(C)C(O)C(C)(O)C3O)c21` (stereo unspecified) as the molecule, how does the GI50 (A549) read?
Its GI50 is 32.8 nM (active).

What about the GI50 (NCI/ADR-RES) of the same molecule?
Its GI50 is 34.4 nM (active).

And the GI50 (RXF 393)?
Its GI50 is 22.5 nM (active).

What about the GI50 (SNB-19) of the same molecule?
Its GI50 is 37.2 nM (active).

What about the GI50 (U-251) of the same molecule?
Its GI50 is 29.6 nM (active).

And the GI50 (SF-295)?
The GI50 was 31.3 nM (active).

What about the GI50 (OVCAR-8) of the same molecule?
The GI50 was 25 nM (active).

And the GI50 (A498)?
Its GI50 is 44.4 nM (active).

And the GI50 (HL-60)?
Its GI50 is 22.5 nM (active).

And the GI50 (SN12C)?
The GI50 was 30.3 nM (active).

What about the GI50 (HCT-116) of the same molecule?
Its GI50 is 23.5 nM (active).

And the GI50 (SK-OV-3)?
The GI50 was 44.5 nM (active).

What about the GI50 (RPMI-8226) of the same molecule?
The GI50 was 29.4 nM (active).

And the GI50 (SF-539)?
The GI50 was 29.5 nM (active).

What about the GI50 (MDA-MB-231) of the same molecule?
Its GI50 is 3.45 nM (active).

What about the GI50 (DU-145) of the same molecule?
Its GI50 is 0.296 nM (active).

What about the GI50 (PC-3) of the same molecule?
Its GI50 is 0.638 nM (active).

And the GI50 (IGROV-1)?
The GI50 was 40.3 nM (active).

What about the GI50 (SW-620) of the same molecule?
The GI50 was 22.5 nM (active).

And the GI50 (HOP-62)?
Its GI50 is 22.5 nM (active).

And the GI50 (TK-10)?
The GI50 was 2.49 nM (active).

And the GI50 (T47D)?
The GI50 was 1.47 nM (active).

What about the GI50 (BT-549) of the same molecule?
Its GI50 is 1.83 nM (active).

What about the GI50 (786-0) of the same molecule?
Its GI50 is 0.348 nM (active).

What about the GI50 (OVCAR-5) of the same molecule?
Its GI50 is 39.7 nM (active).

And the GI50 (MOLT-4)?
The GI50 was 22.5 nM (active).

What about the GI50 (LOX IMVI) of the same molecule?
Its GI50 is 22.5 nM (active).

What about the GI50 (MCF7) of the same molecule?
The GI50 was 22.5 nM (active).

And the GI50 (K562)?
The GI50 was 30.6 nM (active).

What about the GI50 (HT-29) of the same molecule?
Its GI50 is 34.1 nM (active).

And the GI50 (HOP-18)?
Its GI50 is 53 nM (active).

What about the GI50 (UO-31) of the same molecule?
The GI50 was 45.4 nM (active).

And the GI50 (SNB-75)?
Its GI50 is 30.2 nM (active).

What about the GI50 (NCI-H23) of the same molecule?
Its GI50 is 23.7 nM (active).

What about the GI50 (HCC 2998) of the same molecule?
Its GI50 is 49.3 nM (active).

And the GI50 (CAKI-1)?
Its GI50 is 46.2 nM (active).

What about the GI50 (Hs-578T) of the same molecule?
The GI50 was 2.95 nM (active).

What about the GI50 (NCI-H460) of the same molecule?
Its GI50 is 22.5 nM (active).

And the GI50 (DLD-1)?
The GI50 was 67.1 nM (active).

And the GI50 (ACHN)?
Its GI50 is 0.409 nM (active).

And the GI50 (M14)?
The GI50 was 0.382 nM (active).

What about the GI50 (OVCAR-3) of the same molecule?
The GI50 was 54.8 nM (active).

And the GI50 (SR)?
Its GI50 is 0.00307 nM (active).

And the GI50 (MDA-MB-435)?
Its GI50 is 1.63 nM (active).

What about the GI50 (OVCAR-4) of the same molecule?
Its GI50 is 27.1 nM (active).

And the GI50 (MDA-N)?
Its GI50 is 1.71 nM (active).

What about the GI50 (DMS-273) of the same molecule?
Its GI50 is 54.5 nM (active).

And the GI50 (KM-20L2)?
Its GI50 is 41 nM (active).

And the GI50 (HOP-92)?
Its GI50 is 41 nM (active).

What about the GI50 (Malme-3M) of the same molecule?
Its GI50 is 76.4 nM (active).

What about the GI50 (M19-MEL) of the same molecule?
Its GI50 is 61.4 nM (active).

What about the GI50 (CCRF-CEM) of the same molecule?
The GI50 was 22.5 nM (active).

And the GI50 (XF498)?
Its GI50 is 25.2 nM (active).

What about the GI50 (UACC-62) of the same molecule?
The GI50 was 31.7 nM (active).

What about the GI50 (SK-MEL-2) of the same molecule?
The GI50 was 29.4 nM (active).

What about the GI50 (EKVX) of the same molecule?
The GI50 was 39.8 nM (active).

And the GI50 (DMS-114)?
The GI50 was 22.5 nM (active).

What about the GI50 (SF-268) of the same molecule?
Its GI50 is 23.7 nM (active).

And the GI50 (HCT-15)?
The GI50 was 48.9 nM.

Source: ChEMBL document CHEMBL1201862, “PubChem BioAssay data set” (2004)
